According to patent US10273237B2, “Imidazopyridazine compounds useful as modulators of IL-12, IL-23 and/or IFN-α responses” (BRISTOL-MYERS SQUIBB COMPANY, priority 2013, dated 2019):
Several values for one entry are separate records, joined by “and”; a condition that tells them apart may be missing. Identical values can stand only once. Like-named read-outs stand apart in the source and are kept apart here.

Tests used:
[1] = system: IFNα-stimulated Kit225 T cells with STAT-dependent luciferase reporter; assay: Kit225 T cell assay, STAT-dependent luciferase reporter, IFNα stimulated; format: cell-based, human; details: 5-6 hours, read-out: IFNa Kit225 Reporter, LE (IC50)
Outline: (§1)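 Kit225 T cells carrying a stably integrated STAT-dependent luciferase reporter, in RPMI with 10% heat-inactivated FBS, stimulated with 20 ng/mL human recombinant IL-23 or 200 U/mL human recombinant IFNα for 5-6 h. Luciferase expression read by Steady-Glo luminescence.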

[2] = molecular target: T1, His-tagged protein corresponding to amino acids 575-869 of human Tyk2 (Homo sapiens, UniProt P29597); assay: Probe displacement assay (scintillation proximity, radiolabeled probe); format: binding; details: 2.5 nM Tyk2 (575-869), 40 nM [3H] probe, 30 minutes at room temperature
T1 construct: made in house
Experimental: The preparation of radiolabeled probe, (R)—N-(1-(3-(8-methyl-5-(methylamino)-8H-imidazo[4,5-d]thiazolo[5,4-b]pyridin-2-yl)phenyl)ethyl)-2-([^3H]methylsulfonyl)benzamide, was performed as described below: […]

[3] = system: IL-23-stimulated Kit225 T cells with STAT-dependent luciferase reporter; assay: Kit225 T cell assay, STAT-dependent luciferase reporter, IL-23 stimulated; format: cell-based, human; details: Homo sapiens, KIT225, 20 ng/mL human recombinant IL-23, 5-6 hours, read-out: IL-23 Kit225 Reporter, LE (IC50)
Outline: as §1

[4] = Homo sapiens, KIT225, 200 U/mL human recombinant IFNα

T1 sequence (P29597 with tags, fused parts or gaps): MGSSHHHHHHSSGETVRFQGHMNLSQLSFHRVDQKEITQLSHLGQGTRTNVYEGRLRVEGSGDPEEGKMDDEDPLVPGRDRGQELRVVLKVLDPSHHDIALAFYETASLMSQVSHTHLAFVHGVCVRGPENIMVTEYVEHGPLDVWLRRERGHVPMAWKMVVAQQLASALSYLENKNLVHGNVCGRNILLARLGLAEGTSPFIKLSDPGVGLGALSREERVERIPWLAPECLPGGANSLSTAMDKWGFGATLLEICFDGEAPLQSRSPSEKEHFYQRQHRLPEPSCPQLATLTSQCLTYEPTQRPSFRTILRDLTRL

Structure (SMILES) | IC50 [1, 4] [nM] | EC50 [2] | IC50 [3] [nM] | IC50 ([1]; 200 U/mL human recombinant IFNα) [nM]
CNc1cc(Nc2cccn(-c3cnc(C)cn3)c2=O)nn2c(C(=O)NCC(C)(C)CO)cnc12 [Example 6, N-(3-Hydroxy-2,2-dimethylpropyl)-8-(methylamino)-6-((1-(5-methylpyrazin-2-yl)-2-oxo-1,2-dihydropyridin-3-yl)amino)imidazo[1,2-b]pyridazine-3-carboxamide] | 140 | 15 nM | 70 | –
CNc1cc(Nc2cccn(-c3ccc(C#N)cc3)c2=O)nn2c(C(=O)NCC(C)(C)CO)cnc12 [Example 25] | 100 | 16 nM | 200 | –
CNc1cc(Nc2cccn(-c3ccccn3)c2=O)nn2c(C(=O)NC3CC3)cnc12 [Example 32] | 80 | 27 nM | 220 | –
CNc1cc(Nc2cccn(-c3nccs3)c2=O)nn2c(C(=O)NC3CC3)cnc12 [Example 35] | 50 | 5 nM | 20 | –
CNc1cc(Nc2cccn(-c3cccc(F)n3)c2=O)nn2c(C(=O)N[C@@H]3CCOC3)cnc12 [Example 61] | 180 | 20 nM | 210 | –
CNc1cc(Nc2cccn(-c3ccc(C)nn3)c2=O)nn2c(C(=O)NC3CC3)cnc12 [Example 63] | 110 | 7 nM | 140 | –
CC[C@@H](C)NC(=O)c1cnc2c(NC)cc(Nc3cccn(-c4ccccn4)c3=O)nn12 [Example 74] | 110 | 9 nM | 170 | –
CC[C@@H](C)NC(=O)c1cnc2c(NC)cc(Nc3cccn(-c4ccn(C)n4)c3=O)nn12 [Example 79] | 30 | 6 nM | 140 | –
CNc1cc(Nc2cccn(-c3ncc(C)cn3)c2=O)nn2c(C(=O)N[C@@H]3C[C@@H]3F)cnc12 [Example 83] | 120 | 2 nM | 200 | –
CNc1cc(Nc2cccn(-c3cccc(C(C)O)n3)c2=O)nn2c(C(=O)NC3CC3)cnc12 (stereo not drawn) [Example 85] | 110 | 5 nM | 340 | –
CNc1cc(Nc2cccn(-c3cccc(C(C)O)n3)c2=O)nn2c(C(=O)NC3CCC3)cnc12 (stereo not drawn) [Example 86] | 30 | 6 nM | 30 | –
CNc1cc(Nc2cc(F)cn(-c3ccc(C)nn3)c2=O)nn2c(C(=O)NC3CCC3)cnc12 [Example 93] | 30 | 12 nM | 90 | –
CNc1cc(Nc2cccn(-c3ccccn3)c2=O)nn2c(C(=O)NCCF)cnc12 [Example 101] | 170 | 12 nM | 140 | –
CNc1cc(Nc2cccn(-c3cccnn3)c2=O)nn2c(C(=O)NC(C)C)cnc12 [Example 106] | 160 | 13 nM | 180 | –
CNc1cc(Nc2cccn(-c3cnccn3)c2=O)nn2c(C(=O)NCC(C)(C)CO)cnc12 [Example 109] | – | 4 nM | – | –
CNc1cc(Nc2cc(F)cn(CCOC)c2=O)nn2c(C(=O)NC3CC3)cnc12 [Example 118] | 150 | 18 nM | 270 | –
CNc1cc(Nc2cccn(C)c2=O)nn2c(C(=O)NCC(C)(C)C)cnc12 [Example 207] | 180 | 15 nM and 22 nM | – | 260
O=C(NC1CCC1)c1cnc2c3c(c(Nc4cccn(-c5ccccn5)c4=O)nn12)OCCN3 [Example 239, N-Cyclobutyl-6-((2-oxo-2H-[1,2′-bipyridin]-3-yl)amino)-9,10-dihydro-8H-imidazo[1′,2′:1,6]pyridazino[4,5-b][1,4]oxazine-3-carboxamide] | 100 | – | 210 | –
O=C(NC1CC1)c1cnc2c3c(c(Nc4cccn(-c5ccccn5)c4=O)nn12)OCCN3 [Example 240] | 210 | – | 60 | –
O=C(N[C@H]1C[C@@H]1F)c1cnc2c3c(c(Nc4cccn(-c5ccccn5)c4=O)nn12)OCCN3 [Example 241] | 90 | – | 140 | –
CC(C)(CO)CNC(=O)c1cnc2c3c(c(Nc4cccn(-c5ccccn5)c4=O)nn12)OCCN3 [Example 242] | 360 | – | 170 | –
CCn1cc(Cl)cc(Nc2cc(NC)c3ncc(C(=O)NC4CC4)n3n2)c1=O [Example 243, 6-((5-chloro-1-ethyl-2-oxo-1,2-dihydropyridin-3-yl)amino)-N-cyclopropyl-8-(methylamino)imidazo[1,2-b]pyridazine-3-carboxamide] | 20 | – | 50 | –
CCCCn1cc(Cl)cc(Nc2cc(NC)c3ncc(C(=O)NC4CC4)n3n2)c1=O [Example 244] | 120 | – | 290 | –

Structure (SMILES) | IC50 [1, 4] [nM] | EC50 [2] | IC50 [3] [nM] | IC50 ([1]; 200 U/mL human recombinant IFNα) [nM]
CNc1cc(Nc2cccn(C3CCN(C(=O)C4(C(F)(F)F)CC4)CC3)c2=O)nn2c(C(=O)NC3CC3)cnc12 [Example 246] | 220 | – | 200 | –
CNc1cc(Nc2cccn(C3CCN(C(=O)C4CCCO4)CC3)c2=O)nn2c(C(=O)NC3CC3)cnc12 (stereo not drawn) [Example 247] | 350 | – | 420 | –
CNc1cc(Nc2cccn(C3CCN(C(=O)C4CC4(F)F)CC3)c2=O)nn2c(C(=O)NC3CC3)cnc12 (stereo not drawn) [Example 248] | 230 | – | 280 | –
CCC(=O)N1CCC(n2cccc(Nc3cc(NC)c4ncc(C(=O)NC5CC5)n4n3)c2=O)CC1 [Example 249] | 250 | – | 500 | –
CNc1cc(Nc2cccn(C3CCN(CC(F)F)CC3)c2=O)nn2c(C(=O)NC3CC3)cnc12 [Example 250] | 390 | – | 100 | –
CNc1cc(Nc2cccn(C3CCN(C(C)=O)CC3)c2=O)nn2c(C(=O)NC3C[C@@H]3F)cnc12 (stereo partly drawn) [Example 251] | 400 | – | 350 | –
CNc1cc(Nc2cccn(-c3ccc(C(C)(C)O)cn3)c2=O)nn2c(C(=O)NC3CC3)cnc12 [Example 252, N-cyclopropyl-6-((5′-(2-hydroxypropan-2-yl)-2-oxo-2H-[1,2′-bipyridin]-3-yl)amino)-8-(methylamino)imidazo[1,2-b]pyridazine-3-carboxamide] | 190 | – | 450 | –
CNc1cc(Nc2cccn(-c3cnc(C(C)(C)O)cn3)c2=O)nn2c(C(=O)N[C@@H]3C[C@@H]3F)cnc12 [Example 255, N-((1R,2S)-2-Fluorocyclopropyl)-6-((1-(5-(2-hydroxypropan-2-yl)pyrazin-2-yl)-2-oxo-1,2-dihydropyridin-3-yl)amino)-8-(methylamino)imidazo[1,2-b]pyridazine-3-carboxamide] | 28 | – | 30.8 | –
CNc1cc(Nc2cccn(-c3cnc(C(=O)N(C)C)cn3)c2=O)nn2c(C(=O)N[C@@H]3C[C@@H]3F)cnc12 [Example 256, 6-((1-(5-(Dimethylcarbamoyl)pyrazin-2-yl)-2-oxo-1,2-dihydropyridin-3-yl)amino)-N-((1R,2S)-2-fluorocyclopropyl)-8-(methylamino)imidazo[1,2-b]pyridazine-3-carboxamide] | 9.8 | – | 13 | –
CNc1cc(Nc2cccn(-c3ccc(C(=O)N(C)C)cn3)c2=O)nn2c(C(=O)N[C@@H]3C[C@@H]3F)cnc12 [Example 257, 6-((5′-(Dimethylcarbamoyl)-2-oxo-2H-[1,2′-bipyridin]-3-yl)amino)-N-((1R,2S)-2-fluorocyclopropyl)-8-(methylamino)imidazo[1,2-b]pyridazine-3-carboxamide] | 70 | – | 180 | –
CNc1cc(Nc2cccn(-c3ccc(CO)cn3)c2=O)nn2c(C(=O)NC3CC3)cnc12 [compound 253] | 450 | – | 180 | –
CNc1cc(Nc2cccn(-c3ccc(C(C)O)cn3)c2=O)nn2c(C(=O)NC3CC3)cnc12 (stereo not drawn) [compound 254] | 260 | – | 230 | –
CNc1cc(Nc2cccn(-c3cncc(C#N)n3)c2=O)nn2c(C(=O)NCC(C)(C)CO)cnc12 [compound 258] | 590 | – | 1220 | –
CNc1cc(Nc2cccn(-c3cnccn3)c2=O)nn2c(C(=O)NC3CCC(O)C3(C)C)cnc12 (stereo not drawn) [compound 259] | 420 | – | 610 | –
CCOc1ccc(-n2cccc(Nc3cc(NC)c4ncc(C(=O)N[C@@H]5C[C@@H]5F)n4n3)c2=O)nn1 [compound 260] | 10 | – | 10 | –
CNc1cc(Nc2cccn(-c3ccc(OC)nn3)c2=O)nn2c(C(=O)N[C@@H]3C[C@@H]3F)cnc12 [compound 261] | 20 | – | 10 | –
CNc1cc(Nc2cccn(-c3cnc(C(=O)N(C)C)cn3)c2=O)nn2c(C(=O)NCC(C)(C)CO)cnc12 [compound 262] | 110 | – | 90 | –
CCN(C)C(=O)c1ccc(-n2cccc(Nc3cc(NC)c4ncc(C(=O)N[C@@H]5C[C@@H]5F)n4n3)c2=O)nc1 [compound 263] | 50 | – | 160 | –
CNc1cc(Nc2cccn(-c3ccc(C(=O)N4CCC4)cn3)c2=O)nn2c(C(=O)N[C@@H]3C[C@@H]3F)cnc12 [compound 264] | 40 | – | 90 | –
CNc1cc(Nc2cccn(-c3ccc(C(=O)N4CCCC4)cn3)c2=O)nn2c(C(=O)N[C@@H]3C[C@@H]3F)cnc12 [compound 265] | 60 | – | 40 | –
CNc1cc(Nc2cccn(-c3ccc(C(=O)N(C)C)cc3)c2=O)nn2c(C(=O)N[C@@H]3C[C@@H]3F)cnc12 [compound 266] | 110 | – | 120 | –
CNc1cc(Nc2cccn(-c3ccc(C(=O)N(C)C)cc3)c2=O)nn2c(C(=O)NCC(C)(C)CO)cnc12 [compound 267] | 290 | – | 360 | –
